Results taken from patent publication US9023789B2, “Amylin analogs and pharmaceutical compositions thereof” (Novo Nordisk A/S, priority 2012, dated 2015).
Like-named read-outs stand apart in the source and are kept apart here. Numbered stars: 1 amine (or outer) side, 2 acyl side, 3 side chain; on linkers, the order of the positions; unused ones are H or OH. Bridge positions count the residues as written; N and C are the ends. Side chains are listed from the residue outwards. Peptide text beside a SMILES is read from it. * marks the point of attachment. C20 diacid = O=C(O)CCCCCCCCCCCCCCCCCCC(=O)*; γGlu = O=C(O)[C@H](CCC(=O)[*:2])N[*:1]; AEEA = NCCOCCOCC(=O)O

Legend:
[1] = target: T1, rat amylin receptor (rat calcitonin receptor + rat RAMP 3) (Rattus norvegicus, UniProt P32214+Q9JJ73); assay: ASSAY (VI) binding to the rat amylin receptor
T1 construct: expressed in transfected cells; host or cells: BHK tk'ts 13 (transient, FuGENE 6), membranes
T1 sequence (P32214 25-479 isoform P32214-2 limits assumed): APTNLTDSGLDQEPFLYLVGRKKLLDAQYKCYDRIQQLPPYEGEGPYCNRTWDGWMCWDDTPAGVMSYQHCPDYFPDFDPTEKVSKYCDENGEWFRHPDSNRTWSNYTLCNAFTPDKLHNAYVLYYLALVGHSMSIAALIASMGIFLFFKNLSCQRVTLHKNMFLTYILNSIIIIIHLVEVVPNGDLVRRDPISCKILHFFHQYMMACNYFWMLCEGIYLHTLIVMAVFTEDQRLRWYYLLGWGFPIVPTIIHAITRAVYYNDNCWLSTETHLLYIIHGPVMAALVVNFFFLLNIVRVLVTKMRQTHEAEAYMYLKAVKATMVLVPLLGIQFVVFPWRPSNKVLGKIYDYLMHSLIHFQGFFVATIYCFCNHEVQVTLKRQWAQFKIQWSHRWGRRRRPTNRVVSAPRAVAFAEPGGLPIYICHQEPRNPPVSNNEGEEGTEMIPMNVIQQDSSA
T1 sequence (Q9JJ73 23-147 partner): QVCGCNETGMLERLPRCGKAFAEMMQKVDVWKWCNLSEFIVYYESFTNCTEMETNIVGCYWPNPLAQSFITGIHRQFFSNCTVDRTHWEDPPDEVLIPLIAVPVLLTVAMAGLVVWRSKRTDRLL
In short: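 This assay measured binding to the rat amylin receptor. BHK tk′ts 13 cells were transiently transfected with the rat calcitonin receptor using FuGENE® 6 (Roche), following the manufacturer's recommendations. About 48 hours after transfection, the cells were harvested and membranes were prepared from them for the binding determination.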

[2] = target: T2, human calcitonin (a) receptor in BHK570 cells (Homo sapiens, UniProt P30988); assay: ASSAY (II)a functional assay, human calcitonin receptor (CRE luciferase); type: cell-based
T2 construct: expressed in transfected cells
T2 sequence (P30988 25-474): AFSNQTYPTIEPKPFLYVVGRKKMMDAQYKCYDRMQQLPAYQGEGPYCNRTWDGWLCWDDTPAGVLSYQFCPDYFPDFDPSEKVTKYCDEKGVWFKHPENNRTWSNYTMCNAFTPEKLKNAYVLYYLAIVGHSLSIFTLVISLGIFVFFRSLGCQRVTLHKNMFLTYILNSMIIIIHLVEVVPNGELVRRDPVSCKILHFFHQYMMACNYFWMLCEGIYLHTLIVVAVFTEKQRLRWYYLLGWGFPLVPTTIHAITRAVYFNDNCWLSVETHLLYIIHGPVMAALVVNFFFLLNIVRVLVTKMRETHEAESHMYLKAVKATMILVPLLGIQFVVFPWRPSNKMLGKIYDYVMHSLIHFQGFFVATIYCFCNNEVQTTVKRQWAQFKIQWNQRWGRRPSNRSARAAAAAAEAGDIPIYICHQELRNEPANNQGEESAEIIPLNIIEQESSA
In short: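 Ligand exposure 3 h at 37 °C, 5% CO2 in DMEM with 10% FBS, 10 mM Hepes pH 7.4. cAMP-driven luciferase read by luminescence after 30 min LucLite at room temperature.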

[3] = target: T3, human calcitonin receptor (Homo sapiens, UniProt P30988); assay: ASSAY (VII) binding to the human calcitonin receptor (SPA, 125I-Calcitonin);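 also: cell membranes (35 ng/µL) combined with SPA beads in 40 µL of pH 7.4 Hepes buffer, 384-well format, signal counted on a TopCounter instrument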
T3 construct: expressed in transfected cells
T3 sequence (P30988 25-474): T2 sequence (P30988 25-474)

[4] = Table 7, binding to rat amylin receptor, read-out: rAmylin-R bind IC50
[5] = Table 7, rat binding selectivity, rCTR IC50 / rAmylin-R IC50
[6] = Table 7a (preferred compounds), rat binding selectivity, rCTR IC50 / rAmylin-R IC50
[7] = ratio of rCTR bind IC50 to rAmylin-R bind IC50

| SMILES | IC50 [1, 4] [nM] | Ratio rCT/rAmylin binding [1, 5] | Ratio rCT/rAmylin binding [1, 6] | Ratio rCT/rAmylin binding [1, 7] | EC50 ([2]; read-out: hCTR funct. EC50) [nM] | IC50 ([3]; read-out: hCTR bind IC50) [nM] | IC50 [1] [nM] | EC50 [2] [nM] | IC50 [3] [nM] |
| --- | --- | --- | --- | --- | --- | --- | --- | --- | --- |
| CC[C@H](C)[C@H](NC(=O)[C@H](C)NC(=O)CNC(=O)[C@H](Cc1ccccc1)NC(=O)[C@H](CC(N)=O)NC(=O)[C@@H]1CCCN1C(=O)[C@H](CO)NC(=O)[C@H](CO)NC(=O)[C@H](Cc1c[nH]cn1)NC(=O)[C@H](CCCNC(=N)N)NC(=O)[C@H](CC(C)C)NC(=O)[C@H](Cc1ccccc1)NC(=O)[C@H](Cc1c[nH]cn1)NC(=O)[C@H](C)NC(=O)[C@H](CC(C)C)NC(=O)[C@H](CCCNC(=N)N)NC(=O)[C@H](CCC(N)=O)NC(=O)[C@@H](NC(=O)[C@H](C)NC(=O)[C@@H]1CSSC[C@H](NC(=O)[C@@H](N)CCCCNC(=O)CC[C@H](NC(=O)CCCCCCCCCCCCCCCCCCC(=O)O)C(=O)O)C(=O)N[C@@H](CC(N)=O)C(=O)N[C@@H]([C@@H](C)O)C(=O)N[C@@H](C)C(=O)N[C@@H]([C@@H](C)O)C(=O)N1)[C@@H](C)O)C(=O)N1CCC[C@H]1C(=O)N[C@@H](CO)C(=O)N[C@@H](CO)C(=O)N[C@H](C(=O)N[C@@H](CC(N)=O)C(=O)N[C@H](C(=O)NCC(=O)N[C@@H](Cc1c[nH]cn1)C(=O)N[C@@H](CC(N)=O)C(=O)N[C@H](C(=O)N[C@@H](Cc1ccc(O)cc1)C(N)=O)[C@@H](C)O)C(C)C)[C@@H](C)O [Example 81] (H-K([γGlu-C20 diacid])CNTATCATQRLAHFLRHSSPNFGAIPSSTNVGHNTY-NH2; disulfide 2-7; N-terminus assumed) | 1.42 | 42.9 | 42.9 | 42.9 | 1.73 | 23.6 |  |  |  |
| CC[C@H](C)[C@H](NC(=O)[C@H](C)NC(=O)CNC(=O)[C@H](Cc1ccccc1)NC(=O)[C@H](CC(N)=O)NC(=O)[C@@H]1CCCN1C(=O)[C@H](CO)NC(=O)[C@H](CO)NC(=O)[C@H](Cc1c[nH]cn1)NC(=O)[C@H](CCCNC(=N)N)NC(=O)[C@H](CC(C)C)NC(=O)[C@H](Cc1ccccc1)NC(=O)[C@H](CCC(=O)O)NC(=O)[C@H](C)NC(=O)[C@H](CC(C)C)NC(=O)[C@H](CCCNC(=N)N)NC(=O)[C@H](CCC(N)=O)NC(=O)[C@@H](NC(=O)[C@H](C)NC(=O)[C@@H]1CSSC[C@H](NC(=O)[C@@H](N)CCCCNC(=O)CC[C@H](NC(=O)CC[C@H](NC(=O)CCCCCCCCCCCCCCCCCCC(=O)O)C(=O)O)C(=O)O)C(=O)N[C@@H](CC(N)=O)C(=O)N[C@@H]([C@@H](C)O)C(=O)N[C@@H](C)C(=O)N[C@@H]([C@@H](C)O)C(=O)N1)[C@@H](C)O)C(=O)N1CCC[C@H]1C(=O)N[C@@H](CO)C(=O)N[C@@H](CO)C(=O)N[C@H](C(=O)N[C@@H](CC(N)=O)C(=O)N[C@H](C(=O)NCC(=O)N[C@@H](CCCNC(=N)N)C(=O)N[C@@H](CCC(=O)O)C(=O)N[C@H](C(=O)N[C@@H](Cc1ccc(O)cc1)C(N)=O)[C@@H](C)O)C(C)C)[C@@H](C)O [Example 105] (H-K([γGlu-γGlu-C20 diacid])CNTATCATQRLAEFLRHSSPNFGAIPSSTNVGRETY-NH2; disulfide 2-7; N-terminus assumed) | 2.86 | 158.2 | 158.2 | 158.2 | 7.43 | 14.1 |  |  |  |
| CC[C@H](C)[C@H](NC(=O)[C@H](C)NC(=O)CNC(=O)[C@H](Cc1ccccc1)NC(=O)[C@H](CC(N)=O)NC(=O)[C@@H]1CCCN1C(=O)[C@H](CO)NC(=O)[C@H](CO)NC(=O)[C@H](Cc1c[nH]cn1)NC(=O)[C@H](CCCNC(=N)N)NC(=O)[C@H](CC(C)C)NC(=O)[C@H](Cc1ccccc1)NC(=O)[C@H](C)NC(=O)[C@H](C)NC(=O)[C@H](CC(C)C)NC(=O)[C@H](CCCNC(=N)N)NC(=O)[C@H](CCC(N)=O)NC(=O)[C@@H](NC(=O)[C@H](C)NC(=O)[C@@H]1CSSC[C@H](NC(=O)[C@H](CCCNC(=N)N)NC(=O)CNC(=O)CC[C@H](NC(=O)CCCCCCCCCCCCCCCCCCC(=O)O)C(=O)O)C(=O)N[C@@H](CC(N)=O)C(=O)N[C@@H]([C@@H](C)O)C(=O)N[C@@H](C)C(=O)N[C@@H]([C@@H](C)O)C(=O)N1)[C@@H](C)O)C(=O)N1CCC[C@H]1C(=O)N[C@@H](CO)C(=O)N[C@@H](CO)C(=O)N[C@H](C(=O)N[C@@H](CC(N)=O)C(=O)N[C@H](C(=O)NCC(=O)N[C@@H](Cc1c[nH]cn1)C(=O)N[C@@H](CC(N)=O)C(=O)N[C@H](C(=O)N[C@@H](Cc1ccc(O)cc1)C(N)=O)[C@@H](C)O)C(C)C)[C@@H](C)O [Example 101] ({C20 diacid-γGlu}-GRCNTATCATQRLAAFLRHSSPNFGAIPSSTNVGHNTY-NH2; disulfide 3-8) | 8.07 | 60.9 | 60.9 | 60.9 | 0.537 | 29.2 |  |  |  |
| CC[C@H](C)[C@H](NC(=O)[C@H](C)NC(=O)CNC(=O)[C@H](Cc1ccccc1)NC(=O)[C@H](CC(N)=O)NC(=O)[C@@H]1CCCN1C(=O)[C@H](CO)NC(=O)[C@H](CO)NC(=O)[C@H](Cc1c[nH]cn1)NC(=O)[C@H](CCCNC(=N)N)NC(=O)[C@H](CC(C)C)NC(=O)[C@H](Cc1ccccc1)NC(=O)[C@H](CCCCN)NC(=O)[C@H](C)NC(=O)[C@H](CC(C)C)NC(=O)[C@H](CCCNC(=N)N)NC(=O)[C@H](CCC(N)=O)NC(=O)[C@@H](NC(=O)[C@H](C)NC(=O)[C@@H]1CSSC[C@H](NC(=O)[C@@H](N)CCCCNC(=O)COCCOCCNC(=O)CC[C@H](NC(=O)CCCCCCCCCCCCCCCCCCC(=O)O)C(=O)O)C(=O)N[C@@H](CC(N)=O)C(=O)N[C@@H]([C@@H](C)O)C(=O)N[C@@H](C)C(=O)N[C@@H]([C@@H](C)O)C(=O)N1)[C@@H](C)O)C(=O)N1CCC[C@H]1C(=O)N[C@@H](CO)C(=O)N[C@@H](CO)C(=O)N[C@H](C(=O)N1CCC[C@H]1C(=O)N[C@H](C(=O)NCC(=O)N[C@@H](CO)C(=O)N[C@@H](CC(N)=O)C(=O)N[C@H](C(=O)N[C@@H](Cc1ccc(O)cc1)C(N)=O)[C@@H](C)O)C(C)C)[C@@H](C)O [Example 74] (H-K([AEEA-γGlu-C20 diacid])CNTATCATQRLAKFLRHSSPNFGAIPSSTPVGSNTY-NH2; disulfide 2-7; N-terminus assumed) |  | 22.3 | 22.3 | 22.3 |  |  | 4.89 | 37.5 | 79.9 |
| CC[C@H](C)[C@H](NC(=O)[C@H](C)NC(=O)CNC(=O)[C@H](Cc1ccccc1)NC(=O)[C@H](CC(N)=O)NC(=O)[C@@H]1CCCN1C(=O)[C@H](CO)NC(=O)[C@H](CO)NC(=O)[C@H](Cc1c[nH]cn1)NC(=O)[C@H](CCCNC(=N)N)NC(=O)[C@H](CC(C)C)NC(=O)[C@H](Cc1ccccc1)NC(=O)[C@H](CCC(=O)O)NC(=O)[C@H](C)NC(=O)[C@H](CC(C)C)NC(=O)[C@H](CCCNC(=N)N)NC(=O)[C@H](CCC(N)=O)NC(=O)[C@@H](NC(=O)[C@H](C)NC(=O)[C@@H]1CSSC[C@H](NC(=O)[C@H](CCCCN)NC(=O)CC[C@H](NC(=O)CCCCCCCCCCCCCCCCCCC(=O)O)C(=O)O)C(=O)N[C@@H](CC(N)=O)C(=O)N[C@@H]([C@@H](C)O)C(=O)N[C@@H](C)C(=O)N[C@@H]([C@@H](C)O)C(=O)N1)[C@@H](C)O)C(=O)N1CCC[C@H]1C(=O)N[C@@H](CO)C(=O)N[C@@H](CO)C(=O)N[C@H](C(=O)N[C@@H](CC(N)=O)C(=O)N[C@H](C(=O)NCC(=O)N[C@@H](CO)C(=O)N[C@@H](Cc1c[nH]cn1)C(=O)N[C@H](C(=O)N[C@@H](Cc1ccc(O)cc1)C(N)=O)[C@@H](C)O)C(C)C)[C@@H](C)O [Example 18] ({C20 diacid-γGlu}-KCNTATCATQRLAEFLRHSSPNFGAIPSSTNVGSHTY-NH2; disulfide 2-7) | 0.476 | 27.3 | 27.3 |  | 0.742 | 5.09 |  |  |  |
